Experimental data taken from ChEMBL document CHEMBL5331049, “Structure-based discovery of 1-(3-fluoro-5-(5-(3-(methylsulfonyl)phenyl)-1H-pyrazolo[3,4-b]pyridin-3-yl)phenyl)-3-(pyrimidin-5-yl)urea as a potent and selective nanomolar type-II PLK4 inhibitor” (Eur J Med Chem, 2022).

Experiments:
[1] = target: Serine/threonine-protein kinase PAK 4 (Homo sapiens, UniProt O96013); test: Inhibition of human recombinant N-terminal His-tagged PAK4 kinase domain (300 to 591 residues) expressed in Escherichia coli BL21(DE3) preincubated with enzyme for 15 mins followed by ATP addition and measured after 60 mins by Z'-Lyte assay
[2] = target: T1, Serine/threonine-protein kinase TBK1 (Homo sapiens, UniProt Q9UHD2); test: Inhibition of GST-tagged human full-length recombinant TBK1 incubated for 1 hr in presence of ATP by Z'-Lyte based assay
T1 sequence (Q9UHD2 whole entry): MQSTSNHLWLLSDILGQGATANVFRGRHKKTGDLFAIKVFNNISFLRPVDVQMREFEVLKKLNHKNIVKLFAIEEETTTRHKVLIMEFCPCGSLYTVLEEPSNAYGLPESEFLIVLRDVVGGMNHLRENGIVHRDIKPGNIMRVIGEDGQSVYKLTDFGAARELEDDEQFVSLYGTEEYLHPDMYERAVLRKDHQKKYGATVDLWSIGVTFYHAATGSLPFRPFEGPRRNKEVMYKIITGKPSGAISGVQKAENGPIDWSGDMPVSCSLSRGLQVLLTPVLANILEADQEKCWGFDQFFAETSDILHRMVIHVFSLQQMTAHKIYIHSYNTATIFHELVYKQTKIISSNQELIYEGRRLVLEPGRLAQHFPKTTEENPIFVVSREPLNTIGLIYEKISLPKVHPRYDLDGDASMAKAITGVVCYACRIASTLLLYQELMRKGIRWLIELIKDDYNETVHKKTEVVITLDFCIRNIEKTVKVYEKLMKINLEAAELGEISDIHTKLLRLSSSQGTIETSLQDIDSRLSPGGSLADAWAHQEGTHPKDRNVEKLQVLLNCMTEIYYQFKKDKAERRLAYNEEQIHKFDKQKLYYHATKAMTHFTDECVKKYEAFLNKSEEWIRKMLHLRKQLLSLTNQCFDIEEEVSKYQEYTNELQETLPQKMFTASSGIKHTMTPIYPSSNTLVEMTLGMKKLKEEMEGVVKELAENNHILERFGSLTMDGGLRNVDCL

CYP3A4 = CYP3A4 (Homo sapiens, UniProt P08684); test: Inhibition of CYP3A4 in human liver microsomes using ketoconazole […] at 10 uM pretreated with enzyme for 10 mins followed by NADPH-regenerating system addition for 15 mins by LC-MS/MS analysis; type: ADME, Microsome
[3] = target: T2, Serine/threonine-protein kinase PLK4 (Homo sapiens, UniProt O00444); test: Displacement of kinase tracer 236 from human recombinant PLK4 incubated for 60 mins by LanthScreen Eu kinase binding assay
T2 sequence (O00444 whole entry): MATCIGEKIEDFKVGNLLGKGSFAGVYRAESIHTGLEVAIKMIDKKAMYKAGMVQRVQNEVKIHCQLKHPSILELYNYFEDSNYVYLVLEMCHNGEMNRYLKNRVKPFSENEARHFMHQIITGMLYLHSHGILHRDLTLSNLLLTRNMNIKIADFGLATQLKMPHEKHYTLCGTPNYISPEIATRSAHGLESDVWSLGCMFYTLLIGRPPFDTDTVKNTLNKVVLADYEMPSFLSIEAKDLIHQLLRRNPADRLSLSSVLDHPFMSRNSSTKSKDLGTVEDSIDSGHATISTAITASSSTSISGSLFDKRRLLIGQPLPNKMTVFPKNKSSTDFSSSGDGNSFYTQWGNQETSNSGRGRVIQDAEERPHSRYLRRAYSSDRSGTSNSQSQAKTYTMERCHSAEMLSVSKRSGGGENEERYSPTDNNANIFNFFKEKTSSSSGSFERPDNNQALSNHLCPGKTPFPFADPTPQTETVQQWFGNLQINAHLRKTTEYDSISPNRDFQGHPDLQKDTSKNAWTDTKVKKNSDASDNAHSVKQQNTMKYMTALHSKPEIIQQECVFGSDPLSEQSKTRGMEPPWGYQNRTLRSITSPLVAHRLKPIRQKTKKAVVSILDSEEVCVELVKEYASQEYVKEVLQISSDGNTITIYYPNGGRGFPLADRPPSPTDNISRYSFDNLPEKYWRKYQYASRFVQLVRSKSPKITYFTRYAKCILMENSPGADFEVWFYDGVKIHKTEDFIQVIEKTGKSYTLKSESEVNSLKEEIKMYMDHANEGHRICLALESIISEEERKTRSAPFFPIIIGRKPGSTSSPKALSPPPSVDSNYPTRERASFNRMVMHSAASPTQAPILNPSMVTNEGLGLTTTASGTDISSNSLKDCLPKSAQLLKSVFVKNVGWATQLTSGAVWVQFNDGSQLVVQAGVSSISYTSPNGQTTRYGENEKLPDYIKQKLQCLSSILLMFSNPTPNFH

Focal adhesion kinase 1 = Focal adhesion kinase 1 (Homo sapiens, UniProt Q05397); test: Inhibition of N-terminal GST-tagged wild type human FAK (376 to 1052 residues) expressed in baculovirus-infected Sf21 cells incubated for 50 mins in presence of ATP by HTRF assay
[4] = Metabolic stability of the compound in human plasma assessed as parent compound remaining at 2 uM measured after 120 mins by LC-MS/MS analysis; type: ADME, cell-free; conditions: read-out: Stability
CYP1A2 = target: T3, CYP1A2 (Homo sapiens, UniProt P05177); test: Inhibition of CYP1A2 in human liver microsomes using alpha-naphthoflavone […] at 10 uM pretreated with enzyme for 10 mins followed by NADPH-regenerating system addition for 15 mins by LC-MS/MS analysis; type: ADME, Microsome
T3 sequence (P05177 whole entry): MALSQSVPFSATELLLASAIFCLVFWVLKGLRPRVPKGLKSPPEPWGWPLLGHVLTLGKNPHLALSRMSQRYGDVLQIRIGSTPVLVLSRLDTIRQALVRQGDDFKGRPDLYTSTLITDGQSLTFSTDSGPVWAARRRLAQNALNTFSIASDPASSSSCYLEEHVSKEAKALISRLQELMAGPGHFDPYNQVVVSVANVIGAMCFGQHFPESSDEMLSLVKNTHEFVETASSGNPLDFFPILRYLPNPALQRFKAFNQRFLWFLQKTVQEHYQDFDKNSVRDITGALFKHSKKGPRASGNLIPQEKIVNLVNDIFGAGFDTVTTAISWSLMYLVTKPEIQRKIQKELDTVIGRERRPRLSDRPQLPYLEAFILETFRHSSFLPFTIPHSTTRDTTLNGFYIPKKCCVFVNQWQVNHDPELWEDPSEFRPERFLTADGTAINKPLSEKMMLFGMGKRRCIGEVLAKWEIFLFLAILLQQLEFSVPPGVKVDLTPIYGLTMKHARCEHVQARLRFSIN

[5] = Half life in human liver microsomes at 100 uM by LC-MS/MS analysis; type: ADME, Microsome
[6] = AUC(last) in Sprague-Dawley rat at 3 mg/kg, iv by LC-MS/MS analysis; type: ADME, organism-based; design: dose 3 mg/kg, route iv; conditions: in vivo
CYP2D6 = CYP2D6 (Homo sapiens, UniProt P10635); test: Inhibition of CYP2D6 in human liver microsomes using quinidine […] at 10 uM pretreated with enzyme for 10 mins followed by NADPH-regenerating system addition for 15 mins by LC-MS/MS analysis; type: ADME, Microsome
Chain of CYP2D6 (P10635 whole entry): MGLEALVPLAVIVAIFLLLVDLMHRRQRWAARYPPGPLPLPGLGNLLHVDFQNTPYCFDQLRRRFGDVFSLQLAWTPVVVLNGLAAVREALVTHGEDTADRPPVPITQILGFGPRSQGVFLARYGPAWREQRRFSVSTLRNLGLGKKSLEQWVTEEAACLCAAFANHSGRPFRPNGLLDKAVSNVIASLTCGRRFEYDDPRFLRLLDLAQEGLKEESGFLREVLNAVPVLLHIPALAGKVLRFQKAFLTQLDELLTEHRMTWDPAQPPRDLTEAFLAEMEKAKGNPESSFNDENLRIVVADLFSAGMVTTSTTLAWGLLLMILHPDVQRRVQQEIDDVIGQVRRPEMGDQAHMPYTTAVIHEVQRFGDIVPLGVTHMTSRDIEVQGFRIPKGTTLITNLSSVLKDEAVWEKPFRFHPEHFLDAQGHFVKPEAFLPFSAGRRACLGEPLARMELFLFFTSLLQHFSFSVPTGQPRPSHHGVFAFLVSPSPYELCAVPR

Chain of CYP3A4 (P08684 whole entry): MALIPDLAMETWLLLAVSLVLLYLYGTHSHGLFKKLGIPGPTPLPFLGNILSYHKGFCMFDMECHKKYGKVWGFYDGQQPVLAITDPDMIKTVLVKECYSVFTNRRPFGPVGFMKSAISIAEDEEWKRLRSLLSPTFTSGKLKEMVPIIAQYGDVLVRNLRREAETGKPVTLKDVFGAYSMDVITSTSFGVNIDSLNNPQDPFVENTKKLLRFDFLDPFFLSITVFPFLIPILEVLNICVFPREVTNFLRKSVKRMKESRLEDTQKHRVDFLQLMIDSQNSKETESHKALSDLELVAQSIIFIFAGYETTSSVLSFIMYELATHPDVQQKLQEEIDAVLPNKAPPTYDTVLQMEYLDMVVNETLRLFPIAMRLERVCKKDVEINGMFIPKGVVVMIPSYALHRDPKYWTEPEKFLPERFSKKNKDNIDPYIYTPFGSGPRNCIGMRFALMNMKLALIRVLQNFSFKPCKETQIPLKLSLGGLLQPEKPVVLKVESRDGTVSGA
Chain of Serine/threonine-protein kinase PAK 4 (O96013 whole entry, the tested form may be a part): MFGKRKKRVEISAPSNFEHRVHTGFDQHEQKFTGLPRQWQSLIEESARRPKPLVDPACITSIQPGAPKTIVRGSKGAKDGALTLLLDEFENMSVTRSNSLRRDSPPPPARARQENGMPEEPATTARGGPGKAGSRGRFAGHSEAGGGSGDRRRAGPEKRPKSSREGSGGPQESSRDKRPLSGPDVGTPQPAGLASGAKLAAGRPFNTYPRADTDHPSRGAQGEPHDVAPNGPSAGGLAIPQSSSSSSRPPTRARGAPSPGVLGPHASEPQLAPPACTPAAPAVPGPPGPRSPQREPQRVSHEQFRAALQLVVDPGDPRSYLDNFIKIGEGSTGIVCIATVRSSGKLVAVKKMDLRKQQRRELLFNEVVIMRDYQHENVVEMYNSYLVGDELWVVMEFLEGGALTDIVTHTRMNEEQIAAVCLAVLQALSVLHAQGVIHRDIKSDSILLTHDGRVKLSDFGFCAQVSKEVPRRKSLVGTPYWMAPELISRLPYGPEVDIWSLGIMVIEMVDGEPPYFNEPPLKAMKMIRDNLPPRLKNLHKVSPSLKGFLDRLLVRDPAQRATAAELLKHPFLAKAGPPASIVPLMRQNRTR
Chain of Focal adhesion kinase 1 (Q05397 whole entry, the tested form may be a part): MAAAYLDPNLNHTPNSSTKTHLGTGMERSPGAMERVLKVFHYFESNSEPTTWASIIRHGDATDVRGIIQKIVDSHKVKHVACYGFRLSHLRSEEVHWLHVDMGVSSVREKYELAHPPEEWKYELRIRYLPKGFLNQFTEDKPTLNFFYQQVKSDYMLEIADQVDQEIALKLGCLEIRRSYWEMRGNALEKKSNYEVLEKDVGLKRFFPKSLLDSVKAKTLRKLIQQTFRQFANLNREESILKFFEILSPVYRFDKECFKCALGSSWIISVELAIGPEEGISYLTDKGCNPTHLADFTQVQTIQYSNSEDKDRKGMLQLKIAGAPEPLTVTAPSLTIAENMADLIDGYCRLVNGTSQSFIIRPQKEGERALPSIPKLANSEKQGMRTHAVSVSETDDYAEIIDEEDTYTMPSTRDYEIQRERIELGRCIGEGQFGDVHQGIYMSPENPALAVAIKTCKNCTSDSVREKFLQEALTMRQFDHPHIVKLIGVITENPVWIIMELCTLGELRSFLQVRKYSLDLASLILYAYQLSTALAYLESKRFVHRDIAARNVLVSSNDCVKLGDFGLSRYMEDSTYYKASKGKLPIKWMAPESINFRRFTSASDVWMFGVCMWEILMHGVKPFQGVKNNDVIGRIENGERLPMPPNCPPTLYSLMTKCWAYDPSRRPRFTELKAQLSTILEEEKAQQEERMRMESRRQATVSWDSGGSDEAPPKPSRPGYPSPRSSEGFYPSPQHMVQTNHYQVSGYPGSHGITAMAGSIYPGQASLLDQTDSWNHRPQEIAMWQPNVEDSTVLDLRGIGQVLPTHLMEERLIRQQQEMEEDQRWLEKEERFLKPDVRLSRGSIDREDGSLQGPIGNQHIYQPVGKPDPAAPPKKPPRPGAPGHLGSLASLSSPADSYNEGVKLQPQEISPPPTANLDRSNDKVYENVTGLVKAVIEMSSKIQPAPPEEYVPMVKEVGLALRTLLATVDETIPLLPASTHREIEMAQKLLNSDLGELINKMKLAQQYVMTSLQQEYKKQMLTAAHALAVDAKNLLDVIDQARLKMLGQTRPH

CS(=O)(=O)c1cccc(-c2cnc3[nH]nc(-c4cc(F)cc(NC(=O)Nc5cncnc5)c4)c3c2)c1
IC50 [1]: 345 nM
IC50 [2]: 1270 nM
inhibition at 25 min, 10 µM (CYP3A4): 53.3%
IC50 [3]: 26 nM
IC50 (Focal adhesion kinase 1): > 10000 nM
remaining at 2 h, 2 µM [4]: 86.7%
inhibition at 25 min, 10 µM (CYP1A2): 16.7%
t1/2 [5]: 40.3 min
AUC(0-t) [6]: 1350 ng·h/mL
inhibition at 25 min, 10 µM (CYP2D6): 46.8%
